Test results: patent publication US20070219214A1, “Dual NK2/NK3-antagonists, pharmaceutical compositions comprising them, and processes for their preparation” (Solvay pharmaceuticals GmbH, priority 2006, published 2007)

Columns and labels:
human NK2-receptor [1] = molecular target: T1, human NK2-receptor (Homo sapiens, UniProt P21452); experiment: Binding potency of the test substances to NK2-receptors in vitro ([3H]-SR 48968 displacement); design: expressed in transfected cells; host or cells: CHO cells (membrane preparation); conditions: human NK2-receptor in CHO cell membranes, [3H]-SR 48968 (saredutant); average of at least three measurements; read-out: pKi, binding potency to NK2-receptors (converted)
T1 sequence (P21452 1-398): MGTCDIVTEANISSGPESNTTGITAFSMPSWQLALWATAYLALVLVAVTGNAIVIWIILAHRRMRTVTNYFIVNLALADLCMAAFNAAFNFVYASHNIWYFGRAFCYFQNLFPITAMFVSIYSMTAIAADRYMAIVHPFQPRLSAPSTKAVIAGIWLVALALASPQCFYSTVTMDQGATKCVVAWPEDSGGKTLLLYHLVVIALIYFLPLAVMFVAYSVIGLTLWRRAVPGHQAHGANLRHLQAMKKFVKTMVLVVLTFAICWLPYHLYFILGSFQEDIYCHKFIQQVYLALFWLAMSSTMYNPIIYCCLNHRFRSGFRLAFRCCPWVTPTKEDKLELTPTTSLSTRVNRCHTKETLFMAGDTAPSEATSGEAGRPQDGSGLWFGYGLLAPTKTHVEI
Outline: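 Membranes from CHO cells stably expressing the receptor were incubated with [3H]-saredutant plus test compound, then filtered and counted by liquid scintillation. Nonspecific binding defined with 0.1 μmol/l unlabeled saredutant. IC50 from displacement converted to Ki via Cheng-Prusoff and reported as pKi, averaged over measurements.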

NK3-receptor = molecular target: T2, NK3-receptor (Cavia porcellus, UniProt P30098); experiment: NK-3-receptor-antagonistic effectiveness in vivo, senktide-induced hypertension in guinea pigs; conditions: guinea pig, iv; read-out: ID50 (iv), inhibition of blood pressure
T2 construct: from tissue; host or cells: whole animal (Dunkin Hartley guinea pigs), in vivo
T2 sequence (P30098 1-440): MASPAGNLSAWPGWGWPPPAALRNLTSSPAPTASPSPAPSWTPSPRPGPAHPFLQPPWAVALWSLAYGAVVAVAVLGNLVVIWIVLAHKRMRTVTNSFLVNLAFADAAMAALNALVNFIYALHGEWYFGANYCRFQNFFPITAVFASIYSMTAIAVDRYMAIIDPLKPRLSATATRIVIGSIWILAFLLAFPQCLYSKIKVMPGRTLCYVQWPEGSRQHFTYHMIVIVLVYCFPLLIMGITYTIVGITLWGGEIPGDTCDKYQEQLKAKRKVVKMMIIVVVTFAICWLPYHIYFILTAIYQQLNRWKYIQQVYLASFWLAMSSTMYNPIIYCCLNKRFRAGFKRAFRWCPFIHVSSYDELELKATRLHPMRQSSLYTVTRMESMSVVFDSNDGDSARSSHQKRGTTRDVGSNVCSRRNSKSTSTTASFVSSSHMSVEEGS
Protocol: 9. Determination of the NK-3-Receptor-Antagonistic Effectiveness of the Test Substances In Vivo (Reduction of Blood Pressure in Guinea-Pigs with Senktide-Induced Hypertension)
NK3 agonists increase the blood pressure in guinea pigs. The senktide-induced hypertension can be antagonized by administering compounds with NK3-antagonistic properties. Measuring the level of hypertension is indicative of the degree of activity of the test compounds. The effect of the tested compound is assessed in the same experiment to exclude an additional hypertensional effect.
Male Dunkin Hartley guinea pigs with a body weight between 450 and 550 g were anesthetized with Ketamin (200 mg/kg i.m.; Aescoket 10%) and the left carotid artery and left jugular vein were cannulated for blood pressure measurement and drug application, respectively. The animals were allowed to breathe spontaneously. Blood pressure was measured with a strain gauge transducer connected to a computer via an amplifier.
For oral administration, vehicle (1% methylcellulose) or test compound was administered in a dose volume of 5 ml/kg. Forty five minutes thereafter, anesthesia was induced and the carotid artery and jugular vein were cannulated.
For intravenous administration, the test compounds were dissolved in 40% hydroxypropyl-β-cyclodextrine (HPCD) containing 10% DMSO, diluted with saline and administered intravenously in cumulative dose ranges. A vehicle group of animals received the corresponding HPCD/DMSO solutions instead of the test compound. For oral administration, the test compound was suspended in 1% methylcellulose. A vehicle group of animals received the corresponding […] of the test compound.

human NK2-receptor [2] = molecular target: T1, human NK2-receptor; experiment: Functional cellular test, Ca2+ measurements using FLIPR for NK2 activity;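 note: CHO cells stably expressing the human receptor, loaded with a calcium dye, antagonist inhibition of ligand-evoked intracellular calcium rise read as peak fluorescence change on FLIPR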
human NK3 receptor = molecular target: T3, human NK3 receptor (Homo sapiens, UniProt P29371); experiment: Functional cellular test, Ca2+ measurements using aequorin for NK3 activity; type: cell-based; design: expressed in transfected cells; host or cells: cell line co-expressing mitochondrially targeted apoaequorin (CHO according to b76/b77); conditions: read-out: pA2 data for NK3 (converted)
T3 sequence (P29371 1-465): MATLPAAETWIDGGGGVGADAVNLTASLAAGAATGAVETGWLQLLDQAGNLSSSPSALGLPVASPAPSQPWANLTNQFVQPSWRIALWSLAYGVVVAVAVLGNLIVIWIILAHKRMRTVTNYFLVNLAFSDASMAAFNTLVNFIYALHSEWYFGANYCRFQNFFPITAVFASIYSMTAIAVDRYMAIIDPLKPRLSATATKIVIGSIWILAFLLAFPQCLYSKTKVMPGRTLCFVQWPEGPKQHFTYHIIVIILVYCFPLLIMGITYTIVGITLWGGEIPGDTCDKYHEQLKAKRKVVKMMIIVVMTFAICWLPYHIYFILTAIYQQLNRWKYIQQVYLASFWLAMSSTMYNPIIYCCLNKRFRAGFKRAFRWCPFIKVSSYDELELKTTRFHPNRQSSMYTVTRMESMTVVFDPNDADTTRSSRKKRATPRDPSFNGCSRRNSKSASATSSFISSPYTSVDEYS

Ki (human NK2-receptor [1]): 398 pM | Kb (human NK2-receptor [2]): 501 pM | Kb (human NK3 receptor): 31600 pM
SMILES: CNC(=O)C1(N2CCCCC2)CCN(CC[C@H](CN(C)C(=O)c2ccccc2)c2ccc(Cl)c(Cl)c2)CC1 [compound 2]
ED50 (NK3-receptor): 1.98 mg/kg
